From patent US20150038438A1, “ANTIBACTERIAL COMPOUNDS AND METHODS FOR USE” (PTC THERAPEUTICS, INC., priority 2011, published 2015)
Values after ≈ are worked out from the molar mass of the structure shown. Counter-ions that a name gives are not always drawn.

Assays:
Experiment in all cases: Antibacterial activity, microbroth dilution method (MIC)
[1] = test system: Gram-positive Staphylococcus aureus (S. aureus) 29213; format: cell-based; conditions: Staphylococcus aureus, Gram-positive S. aureus 29213
Outline: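 Broth microdilution; endpoint = no macroscopic growth; value = lowest inhibiting concn, μg/mL.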

[2] = test system: super sensitive Gram-negative Escherichia coli (E. coli) BAS849; format: cell-based; conditions: Escherichia coli; super sensitive Gram-negative E. coli BAS849; microbroth dilution; read-out: MIC, E. coli BAS849
Outline: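 Potency is reported as minimum inhibitory concentration in μg/mL, determined by broth microdilution as the lowest level of compound that stops growth visible to the eye.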

[3] = test system: control Gram-negative E. coli 25922 strain; format: cell-based, Escherichia coli; conditions: Escherichia coli
Outline: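 Each strain is exposed to test compound in a microbroth dilution series; visible growth is scored macroscopically, and the lowest growth-free concentration is recorded as MIC in μg/mL.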

Structure (SMILES) | MIC [1] | MIC [2] | MIC [3]
Cn1c2c(cc(C(=O)O)c1=O)CC=Cc1cc3c(ccn3C)cc1-2 [Cpd 130, 1,9-dimethyl-2-oxo-1,2,5,9-tetrahydropyrido[3′,2′:6,7]cyclohepta[1,2-f]indole-3-carboxylic acid] | 12.5 to 150 µg/mL (≈ 39 to 468 µM) | < 1 µg/mL | 3.5 to 12.5 µg/mL (≈ 10.9 to 39 µM)
O=C(O)c1c(O)c2c([nH]c1=O)-c1ccc(N3CCCC3)cc1NCC2 [Cpd 94, 4-hydroxy-2-oxo-9-(pyrrolidin-1-yl)-2,5,6,7-tetrahydro-1H-benzo[b]pyrido[2,3-d]azepine-3-carboxylic acid] | 12.5 to 150 µg/mL (≈ 36.6 to 439 µM) | < 1 µg/mL | 1 to 3.5 µg/mL (≈ 2.93 to 10.3 µM)
CC(C)NCc1cc2cc3c(cc2n1C)NCCCc1c-3[nH]c(=O)c(C(=O)O)c1O.Cl [Cpd 105, 4-hydroxy-11-((isopropylamino)methyl)-10-methyl-2-oxo-2,5,6,7,8,10-hexahydro-1H-pyrido[2′,3′:4,5]azocino[3,2-f]indole-3-carboxylic acid hydrochloride] | 12.5 to 150 µg/mL | 1 to 3.5 µg/mL | 3.5 to 12.5 µg/mL
Cl.Cl.Cn1c(CN2CC[C@H](N)C2)cc2cc3c(cc21)CCCc1c-3[nH]c(=O)c(C(=O)O)c1O [Cpd 49, (S)-10-((3-aminopyrrolidin-1-yl)methyl)-4-hydroxy-9-methyl-2-oxo-1,2,5,6,7,9-hexahydropyrido[3′,2′:6,7]cyclohepta[1,2-f]indole-3-carboxylic acid dihydrochloride] | 12.5 to 150 µg/mL | 1 to 3.5 µg/mL | 3.5 to 12.5 µg/mL
N[C@@H]1[C@H]2CN(c3cc(F)c4c(c3)CCCc3c-4[nH]c(=O)c(C(=O)O)c3O)C[C@@H]12 [Cpd 125, 9-((cis,cis)-6-amino-3-azabicyclo[3.1.0]hexan-3-yl)-11-fluoro-4-hydroxy-2-oxo-2,5,6,7-tetrahydro-1H-benzo[6,7]cyclohepta[1,2-b]pyridine-3-carboxylic acid hydrochloride] | 12.5 to 150 µg/mL | < 1 µg/mL | 3.5 to 12.5 µg/mL
CCNCc1cc2cc3c(cc2n1C)NCCc1c-3[nH]c(=O)c(C(=O)O)c1O.Cl [Cpd 100, 10-((ethylamino)methyl)-4-hydroxy-9-methyl-2-oxo-1,2,5,6,7,9-hexahydropyrido[2′,3′:4,5]azepino[3,2-f]indole-3-carboxylic acid hydrochloride] | 12.5 to 150 µg/mL | 1 to 3.5 µg/mL | 12.5 to 150 µg/mL
CCCNCc1cc2cc3c(cc2n1C)CCCc1c-3[nH]c(=O)c(C(=O)O)c1O.Cl [Cpd 44, 4-hydroxy-9-methyl-2-oxo-10-((propylamino)methyl)-1,2,5,6,7,9-hexahydropyrido[3′,2′:6,7]cyclohepta[1,2-f]indole-3-carboxylic acid hydrochloride] | 3.5 to 12.5 µg/mL | < 1 µg/mL | < 1 µg/mL
CNCc1cc2cc3c(cc2n1C)C=CCc1c-3[nH]c(=O)c(C(=O)O)c1O.Cl [Cpd 68, 4-hydroxy-9-methyl-10-((methylamino)methyl)-2-oxo-1,2,5,9-tetrahydropyrido[3′,2′:6,7]cyclohepta[1,2-f]indole-3-carboxylic acid hydrochloride] | 3.5 to 12.5 µg/mL | < 1 µg/mL | < 1 µg/mL
CC1Cc2cc(N3CCCC3)ccc2-c2[nH]c(=O)c(C(=O)O)c(O)c21 (stereo not drawn) [Cpd 107, 4-hydroxy-5-methyl-2-oxo-8-(pyrrolidin-1-yl)-1,2,5,6-tetrahydrobenzo[h]quinoline-3-carboxylic acid] | 3.5 to 12.5 µg/mL (≈ 10.3 to 36.7 µM) | < 1 µg/mL | 12.5 to 150 µg/mL (≈ 36.7 to 441 µM)
N[C@@H]1[C@H]2CN(c3ccc4c(c3)OCCc3c-4[nH]c(=O)c(C(=O)O)c3O)C[C@@H]12 [Cpd 80, 9-((cis,cis)-6-amino-3-azabicyclo[3.1.0]hexan-3-yl)-4-hydroxy-2-oxo-1,2,5,6-tetrahydrobenzo[2,3]oxepino[4,5-b]pyridine-3-carboxylic acid hydrochloride] | 12.5 to 150 µg/mL | < 1 µg/mL | 1 to 3.5 µg/mL
Cl.Cn1c(CNCC2CC2)cc2cc3c(cc21)CCCc1c-3[nH]c(=O)c(C(=O)O)c1O [Cpd 32, 10-(((cyclopropylmethyl)amino)methyl)-4-hydroxy-9-methyl-2-oxo-1,2,5,6,7,9-hexahydropyrido[3′,2′:6,7]cyclohepta[1,2-f]indole-3-carboxylic acid hydrochloride] | 1 to 3.5 µg/mL | < 1 µg/mL | 1 to 3.5 µg/mL
CN1CCC2CN(Cc3cc4cc5c(cc4n3C)CCCc3c-5[nH]c(=O)c(C(=O)O)c3O)CC21.Cl.Cl (stereo not drawn) [Cpd 162, 4-hydroxy-9-methyl-10-((1-methylhexahydropyrrolo[3,4-b]pyrrol-5(1H)-yl)methyl)-2-oxo-1,2,5,6,7,9-hexahydropyrido[3′,2′:6,7]cyclohepta[1,2-f]indole-3-carboxylic acid dihydrochloride] | 12.5 to 150 µg/mL | < 1 µg/mL | 3.5 to 12.5 µg/mL
O=C(O)c1cc2c([nH]c1=O)-c1ccc(N3CCCC3)cc1OCC2 [Cpd 81, 2-oxo-9-(pyrrolidin-1-yl)-1,2,5,6-tetrahydrobenzo[2,3]oxepino[4,5-b]pyridine-3-carboxylic acid] | 12.5 to 150 µg/mL (≈ 38.3 to 460 µM) | < 1 µg/mL | 12.5 to 150 µg/mL (≈ 38.3 to 460 µM)
Cl.Cn1c(CNCc2cccnc2)cc2cc3c(cc21)CCCc1c-3[nH]c(=O)c(C(=O)O)c1O [Cpd 52, 4-hydroxy-9-methyl-2-oxo-10-(((pyridin-3-ylmethyl)amino)methyl)-1,2,5,6,7,9-hexahydropyrido[3′,2′:6,7]cyclohepta[1,2-f]indole-3-carboxylic acid hydrochloride] | 3.5 to 12.5 µg/mL | < 1 µg/mL | 3.5 to 12.5 µg/mL
CC1Oc2cc(Cl)ccc2-c2c1cc(C(=O)O)c(=O)n2Cc1ccccc1 (stereo not drawn) [Cpd 72, 1-benzyl-8-chloro-5-methyl-2-oxo-2,5-dihydro-1H-chromeno[4,3-b]pyridine-3-carboxylic acid] | 3.5 to 12.5 µg/mL (≈ 9.17 to 32.7 µM) | 3.5 to 12.5 µg/mL (≈ 9.17 to 32.7 µM) | 12.5 to 150 µg/mL (≈ 32.7 to 393 µM)
CCCCCCCCNCc1cc2cc3c(cc2n1C)CCCc1c-3[nH]c(=O)c(C(=O)O)c1O.Cl [Cpd 140, 4-hydroxy-9-methyl-10-((octylamino)methyl)-2-oxo-1,2,5,6,7,9-hexahydropyrido[3′,2′:6,7]cyclohepta[1,2-f]indole-3-carboxylic acid hydrochloride] | 1 to 3.5 µg/mL | < 1 µg/mL | 12.5 to 150 µg/mL
O=C(O)c1c(O)c2c([nH]c1=O)-c1ccc(N3CCCC3)cc1SCC2 [Cpd 186, 4-hydroxy-2-oxo-9-(pyrrolidin-1-yl)-1,2,5,6-tetrahydrobenzo[2,3]thiepino[4,5-b]pyridine-3-carboxylic acid] | 3.5 to 12.5 µg/mL (≈ 9.77 to 34.9 µM) | < 1 µg/mL | 12.5 to 150 µg/mL (≈ 34.9 to 419 µM)
CCC(C)NCc1cc2cc3c(cc2n1C)CCCc1c-3[nH]c(=O)c(C(=O)O)c1O.Cl (stereo not drawn) [Cpd 146, 10-((sec-butylamino)methyl)-4-hydroxy-9-methyl-2-oxo-1,2,5,6,7,9-hexahydropyrido[3′,2′:6,7]cyclohepta[1,2-f]indole-3-carboxylic acid hydrochloride] | 3.5 to 12.5 µg/mL | < 1 µg/mL | < 1 µg/mL
Cl.Cn1c(CNC2CC2)cc2cc3c(cc21)OCCc1c-3[nH]c(=O)c(C(=O)O)c1O [Cpd 171, 10-((cyclopropylamino)methyl)-4-hydroxy-9-methyl-2-oxo-2,5,6,9-tetrahydro-1H-pyrido[2′,3′:4,5]oxepino[3,2-f]indole-3-carboxylic acid hydrochloride] | 3.5 to 12.5 µg/mL | < 1 µg/mL | < 1 µg/mL
Cl.Cn1c(CN2CCC(O)CC2)cc2cc3c(cc21)CCCc1c-3[nH]c(=O)c(C(=O)O)c1O [Cpd 28, 4-hydroxy-10-((4-hydroxypiperidin-1-yl)methyl)-9-methyl-2-oxo-1,2,5,6,7,9-hexahydropyrido[3′,2′:6,7]cyclohepta[1,2-f]indole-3-carboxylic acid hydrochloride] | 3.5 to 12.5 µg/mL | < 1 µg/mL | 1 to 3.5 µg/mL
O=C(O)c1c(O)c2c([nH]c1=O)-c1ccc(N3CCCC3)cc1CCCC2 [Cpd 126, 4-hydroxy-2-oxo-10-(pyrrolidin-1-yl)-1,2,5,6,7,8-hexahydrobenzo[7,8]cycloocta[1,2-b]pyridine-3-carboxylic acid] | 1 to 3.5 µg/mL (≈ 2.82 to 9.88 µM) | < 1 µg/mL | 12.5 to 150 µg/mL (≈ 35.3 to 423 µM)
CN(C)CCNCc1cc2cc3c(cc2n1C)OCCc1c-3[nH]c(=O)c(C(=O)O)c1O.Cl.Cl [Cpd 182, 10-(((2-(dimethylamino)ethyl)amino)methyl)-4-hydroxy-9-methyl-2-oxo-2,5,6,9-tetrahydro-1H-pyrido[2′,3′:4,5]oxepino[3,2-f]indole-3-carboxylic acid dihydrochloride] | 12.5 to 150 µg/mL | 1 to 3.5 µg/mL | 12.5 to 150 µg/mL
Cl.Cn1c(CNC2(C)CC2)cc2cc3c(cc21)CCCc1c-3[nH]c(=O)c(C(=O)O)c1O [Cpd 33, 4-hydroxy-9-methyl-10-(((1-methylcyclopropyl)amino)methyl)-2-oxo-1,2,5,6,7,9-hexahydropyrido[3′,2′:6,7]cyclohepta[1,2-f]indole-3-carboxylic acid hydrochloride] | 3.5 to 12.5 µg/mL | < 1 µg/mL | < 1 µg/mL
CC1COc2cc(N3CCC(N(C)C)C3)ccc2-c2[nH]c(=O)c(C(=O)O)c(O)c21.Cl (stereo not drawn) [Cpd 84, 9-(3-(dimethylamino)pyrrolidin-1-yl)-4-hydroxy-5-methyl-2-oxo-1,2,5,6-tetrahydrobenzo[2,3]oxepino[4,5-b]pyridine-3-carboxylic acid hydrochloride] | 12.5 to 150 µg/mL | 1 to 3.5 µg/mL | 12.5 to 150 µg/mL
Cl.Cn1c(CNC(C)(C)C)cc2cc3c(cc21)CCCc1c-3[nH]c(=O)c(C(=O)O)c1O [Cpd 27, 10-((tert-butylamino)methyl)-4-hydroxy-9-methyl-2-oxo-1,2,5,6,7,9-hexahydropyrido[3′,2′:6,7]cyclohepta[1,2-f]indole-3-carboxylic acid hydrochloride] | 1 to 3.5 µg/mL | < 1 µg/mL | < 1 µg/mL
